Results on three compounds are retold here after paper PMC8921294, “Inhibition of mitochondrial LonP1 protease by allosteric blockade of ATP binding and hydrolysis via CDDO and its derivatives” (The Journal of Biological Chemistry, 2022).

The target in one data set is T1, Human LonP1 protease (Homo sapiens, UniProt P36776).
T1 construct: hexa-histidine (N); made in house; host or cells: Rosetta 2 E. coli
T1 sequence (P36776 68-959): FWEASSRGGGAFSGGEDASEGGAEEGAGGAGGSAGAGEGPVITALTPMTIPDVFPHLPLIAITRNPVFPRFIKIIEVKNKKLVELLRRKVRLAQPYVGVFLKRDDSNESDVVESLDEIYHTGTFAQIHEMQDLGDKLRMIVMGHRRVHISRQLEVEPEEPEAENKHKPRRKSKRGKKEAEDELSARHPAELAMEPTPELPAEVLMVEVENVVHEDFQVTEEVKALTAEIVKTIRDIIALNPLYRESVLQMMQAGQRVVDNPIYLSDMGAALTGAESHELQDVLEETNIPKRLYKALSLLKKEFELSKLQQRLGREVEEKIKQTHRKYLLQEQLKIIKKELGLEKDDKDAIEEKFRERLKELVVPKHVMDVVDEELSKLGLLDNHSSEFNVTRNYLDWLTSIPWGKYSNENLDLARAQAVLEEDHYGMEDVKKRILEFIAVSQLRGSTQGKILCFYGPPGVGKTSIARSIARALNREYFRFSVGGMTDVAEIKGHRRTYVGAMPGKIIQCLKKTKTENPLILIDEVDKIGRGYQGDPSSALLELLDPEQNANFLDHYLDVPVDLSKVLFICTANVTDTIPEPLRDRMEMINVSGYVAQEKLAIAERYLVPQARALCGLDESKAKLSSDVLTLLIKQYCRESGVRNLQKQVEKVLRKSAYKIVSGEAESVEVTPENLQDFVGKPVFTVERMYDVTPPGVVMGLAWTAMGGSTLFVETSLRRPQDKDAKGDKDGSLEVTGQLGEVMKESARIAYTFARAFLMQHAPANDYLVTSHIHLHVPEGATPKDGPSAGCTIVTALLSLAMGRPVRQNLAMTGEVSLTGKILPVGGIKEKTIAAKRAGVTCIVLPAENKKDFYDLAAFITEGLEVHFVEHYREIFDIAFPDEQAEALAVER
Briefly: FITC-casein protease assay (ATP-dependent proteolysis). The format is biochemical. To be noted: for Inhibition of LonP1-mediated degradation of FITC-casein: 30 min preincubation at 30 °C, ATP 4 mM; for Preincubation time after which ATP-dependent proteolysis is inhibited: preincubation at 30 °C. The method, then:
Human LonP1 (1.0 μM monomer) was preincubated with CDDO derivatives, TP-82, enoxolone (5 μM) or DMSO vehicle control (1%) in buffer (150 mM NaCl, 50 mM Hepes-KOH pH 8.0, 10 mM MgCl2, 0.1 mg/ml BSA) for 30 min at 30 °C. Reactions were initiated by the addition of FITC-casein (0.1 mg/ml) and ATP (4.0 mM) and incubated at 37 °C. The kinetics of FITC-casein degradation was measured by the increase in relative fluorescence units (RFU) at 490–525 nm wavelength at 37 °C using a Spectramax or Biotek Synergy plate reader. For endpoint assays, aliquots of reactions incubated at 37 °C were removed at indicated time points and terminated by adding 5X reducing sample buffer (RSB). The decrease of intact FITC-casein was determined by SDS-PAGE followed by visualization using FluorChem or Chemi-Doc systems.
Reactions (500 μl) containing LonP1 (1.0 μM monomer) in buffer (150 mM NaCl, 50 mM Hepes-KOH pH 8.0, 10 mM MgCl2) were preincubated with CDDO-Me (10 μM) or DMSO (1%) for 60 min at 30 °C. After this period, respective aliquots (50 μl) were removed and assayed for FITC-casein degradation to confirm inhibition by CDDO-Me. The remaining 450 μl reaction was transferred to a Slide-A-Lyzer (100 kDa MWCO) and dialyzed against 500 ml Buffer K (50 mM Hepes KOH, pH 8.0, 150 mM NaCl, 10 mM MgOAc2, 20% glycerol) for 24 h at 4 °C. After this period, the protein concentration was measured to determine protein recovery and the protease activity of LonP1, which had been preincubated with and without CDDO-Me was measured using the FITC-casein degradation assay.

The subject of the next data set is 26S proteasome. Briefly: 26S proteasome-dependent degradation of p53 in HeLa ρ^0 cells (immunoblot). To be noted: 7 h. It counts as cell-based, human. From the text:
LonP1 belongs to the AAA^+ superfamily of ATPases Associated with diverse cellular Activities, which mediate various cellular processes such as DNA replication, recombination, chromatin remodeling, ribosomal RNA processing, membrane fusion as well as ATP-dependent proteolysis ([48]). The 26S proteasome consists of the 20S proteolytic core particle, which mediates peptide bond hydrolysis and the 19S regulatory particle containing ATPases belonging to the AAA^+ family ([49]). […] We sought to test the apparent selectivity of CDDO derivatives for LonP1 but not the 26S in cultured cells. There are no known proteins that are constitutively degraded by LonP1 under baseline conditions, which would permit us to assay protease inhibition by CDDO derivatives. Therefore, we employed experimentally derived HeLa cells lacking mitochondrial DNA (mtDNA) (referred to as HeLa ρ^0 cells) ([50]), in which LonP1 constitutively degrades mitochondrial transcription factor A (TFAM) ([6]). When TFAM fails to bind mtDNA (e.g., when mtDNA is absent), it is rapidly degraded by LonP1, thus providing a readout for protease activity ([6]). An advantage of using this system is that HeLa cells express the human papillomavirus (HPV) E6 protein, which promotes constitutive degradation of p53 by the 26S proteasome. Thus, the effects of CDDO derivatives on LonP1 and the 26S proteasome can be examined in parallel.
HeLa cells devoid of mitochondrial DNA (HeLa ρ^0) and LCL cells were generated as described previously ([50]). DMEM, RPMI, and fetal bovine serum were purchased from Sigma. All cells were grown with 5% CO2 at 37 °C. LCL cells were cultured in RPMI supplemented with 15% FBS. HeLa Rho 0 cells were cultured in high glucose DMEM (25 mM) (Sigma) supplemented with sodium pyruvate ([…]) and uridine ([…]). CDDO-Me was purchased from Cayman chemicals, and CDDO-AH was synthesized as described previously ([20]). […]
In general terms: A western blot detects proteins with antibodies after separation by electrophoresis.

Another data set has as its system HeLa ρ^0 cells. Kind of data set: Cytotoxicity/apoptosis in HeLa ρ^0 cells (cleaved PARP, procaspase 3 immunoblot). It counts as cell-based, human. To be noted: 7 h, Fig. 4D. The method, then: HeLa cells devoid of mitochondrial DNA (HeLa ρ^0) and LCL cells were generated as described previously ([50]). DMEM, RPMI, and fetal bovine serum were purchased from Sigma. All cells were grown with 5% CO2 at 37 °C. LCL cells were cultured in RPMI supplemented with 15% FBS. HeLa Rho 0 cells were cultured in high glucose DMEM (25 mM) (Sigma) supplemented with sodium pyruvate ([…]) and uridine ([…]). CDDO-Me was purchased from Cayman chemicals, and CDDO-AH was synthesized as described previously ([20]). HEK293 cells plated in 60 mm dishes at a confluency of 60 to 70% were transfected with Control or 3′UTR LonP1 siRNA using Lipofectamine 2000 (Invitrogen) and reduced serum OPTI MEM (Sigma) as described in the manufacturer’s protocol to knockdown LonP1, whereas adenoviral transduction was employed to overexpress LonP1. CDDO-Me and CDDO-anhydride were dissolved in DMSO and serially diluted in the respective complete medium and added to HeLa ρ^0 cells and were treated for 7 or 24 h.
Cells were harvested, centrifuged, and washed with PBS and proteins were extracted by adding the lysis buffer (50 mM Tris, [pH 7.5], 300 mM NaCl, and 0.5% Triton X-100) containing 2X Halt phosphatase and protease cocktail inhibitor (Thermo Scientific) for 20 min on ice. After centrifugation at 14,000 rpm for 15 min at 4 °C, the supernatant was collected and estimated for protein by Bradford’s method. […]

As to `COC(=O)[C@]12CCC(C)(C)C[C@H]1[C@H]1C(=O)C=C3[C@@]4(C)C=C(C#N)C(=O)C(C)(C)[C@@H]4CC[C@@]3(C)[C@]1(C)CC2` [CDDO-Me], the “Reversibility: proteolytic activity after dialysis” value at Human LonP1 protease (10 μM, dialysis at 4 °C for 24 h) is listed as “restored proteolytic activity”. For the same compound, the “Degradation of FITC-casein before dialysis” value at Human LonP1 protease (10 μM, preincubation 60 min at 30 °C) is “completely block”. On Human LonP1 protease, the “Inhibition of LonP1-mediated degradation of FITC-casein” value is given as “inhibit” and the “Preincubation time after which ATP-dependent proteolysis is inhibited” value is 5 min. For the same compound, in the data set on 26S proteasome (1 μM), the “Protein levels of p53” value was “increased”. The “26S proteasome-dependent degradation of p53” value in the data set on 26S proteasome (0.125 to 0.5 μM) is “did not block”.
For `CC1(C)CC[C@]2(C(=O)OC(=O)[C@]34CCC(C)(C)C[C@H]3[C@H]3C(=O)C=C5[C@@]6(C)C=C(C#N)C(=O)C(C)(C)[C@@H]6CC[C@@]5(C)[C@]3(C)CC4)CC[C@]3(C)[C@H](C(=O)C=C4[C@@]5(C)C=C(C#N)C(=O)C(C)(C)[C@@H]5CC[C@]43C)[C@@H]2C1` [CDDO-anhydride], the “26S proteasome-mediated degradation of p53” value in the data set on 26S proteasome (20 μM) is given as “did not block”. Moreover, in the data set on HeLa ρ^0 cells, the “Concentration up to which no change in procaspase 3 levels was observed” value is given as “up to 5 μM”.
With `CC1(C)CC[C@]2(C(=O)O)CC[C@]3(C)[C@H](C(=O)C=C4[C@@]5(C)C=C(C#N)C(=O)C(C)(C)[C@@H]5CC[C@]43C)[C@@H]2C1` [CDDO, 2-cyano-3,12-dioxooleana-1,9(11)-dien-28-oic acid], at Human LonP1 protease, the “Inhibition of LonP1-mediated degradation of FITC-casein” value is reported as “inhibit” and the “Preincubation time after which ATP-dependent proteolysis is inhibited” value is at least 20 min.
